Measured values: PubChem BioAssay (NCI)
Where “and” joins values, the source holds several entries; their conditions need not be identical. Identical values can stand only once.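 Exposure lasted 48 hours, with cells grown in 96-well plates and compounds tested at five concentrations. GI50: concentration for 50% inhibition of growth. TGI: total growth inhibition.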

Tests used:
Test in all cases: growth of human tumour cells (NCI), 48 h
DLD-1 colon = system: DLD-1 colon
DMS 114 small cell lung = system: DMS 114 small cell lung
HOP-18 NSCLC = system: HOP-18 NSCLC
KM20L2 colon = system: KM20L2 colon
LXFL 529 NSCLC = system: LXFL 529 NSCLC
RXF-631 renal = system: RXF-631 renal
DU-145 prostate = system: DU-145 prostate
NCI/ADR-RES ovarian = system: NCI/ADR-RES ovarian
T-47D breast = system: T-47D breast
MCF7 breast = system: MCF7 breast

| Structure (SMILES) | TGI (DLD-1 colon) | TGI (DMS 114 small cell lung) | TGI (HOP-18 NSCLC) | TGI (KM20L2 colon) | TGI (LXFL 529 NSCLC) [µM] | TGI (RXF-631 renal) [µM] | further results |
| --- | --- | --- | --- | --- | --- | --- | --- |
| O=C(O)C1C2CCC(O2)C1C(=O)N1CCCCC1 (stereo unspecified) | 39.7 µM | 5.06 µM | 36.5 µM | 13.1 µM | 16.9 | 51.6 |  |
| CCCNCCCC(NC(C)=O)C(=O)NCc1ccccc1 (stereo unspecified) | > 100 µM | > 100 µM |  | > 100 µM | > 100 | > 100 |  |
| O=C(c1ccc(Cl)cc1)c1ccc(OCCCCCCCCCCOc2ccc(C(=O)c3ccc(Cl)cc3)cc2)cc1 | > 100 µM | > 100 µM |  | > 100 µM |  | > 100 |  |
| COc1ccccc1/C=C1\CCC(CCN(C)C)(C2=CCCC2)C1=O (stereo unspecified) | 38.5 µM | 34.2 µM | 85.3 µM | 15.7 µM | 29.6 | 29.8 |  |
| Oc1cc(O)c(Oc2cccc(O)c2O)c(O)c1 |  | > 100 µM | > 100 µM |  | > 100 | > 100 |  |
| COc1cc(/C=C\c2ccccc2)cc(OC)c1OC | > 78.2 µM | > 28 µM | > 100 µM | 3.31 µM | > 68.1 | > 87.1 |  |
| CC1CC2CC(=O)CC3(C1)C2CCCN3CCCO (stereo unspecified) | > 100 µM | > 100 µM | > 100 µM |  | > 100 | > 100 |  |
| CC(=O)N[C@@H]1C(O)CN2C(=O)C(=O)O[C@H](C(O)CO)[C@@H]12 (stereo partly specified) | > 100 µM | > 100 µM | > 100 µM | > 100 µM | > 100 | > 100 |  |
| CC[C@@]1(O)C[C@H](OC2CC(N(C)C)C(OC3CC(O)C(OC4CCC(=O)C(C)O4)C(C)O3)C(C)O2)c2c(cc3c(c2O)C(=O)c2c(O)cccc2C3=O)[C@H]1C(=O)OC (stereo partly specified) | 1.15 µM and 1.17 µM | 0.154 µM and 0.173 µM | 0.854 µM and 2.72 µM | 0.249 µM and 1.07 µM | 1.14 | 0.0664 | GI50 (DLD-1 colon): 0.00912 µM and 0.00788 µM; TGI (DU-145 prostate): 0.42 µM and 1.73 µM; GI50 (KM20L2 colon): 0.00595 µM and 0.00275 µM; GI50 (LXFL 529 NSCLC): 0.00422 µM; TGI (NCI/ADR-RES ovarian): 0.696 µM and 0.878 µM; TGI (T-47D breast): 0.472 µM and 2.63 µM |
| COC[C@@H](N=CN1CCc2cc(OC)c(OC)cc2[C@@H]1C)C(C)(C)C | > 100 µM | > 100 µM | > 100 µM | > 100 µM | > 100 | > 100 |  |
| CC(C)C1(O)C(c2ccccc2)=C(c2ccccc2)C(c2ccccc2)=C1c1ccccc1 | > 100 µM | 11.8 µM | 52.7 µM | 23.3 µM | 51.9 | 51.3 |  |
| CCCCC1CC(c2cccc([N+](=O)[O-])c2)=NO1 (stereo unspecified) | > 100 µM | > 100 µM | > 100 µM | > 100 µM | > 100 | > 100 |  |
| CN(C)c1ccc([O-])cc1.CN(C)c1ccc([O-])cc1.CN(C)c1ccc([O-])cc1.CN(C)c1ccc([O-])cc1.[Ti+4] | > 100 µM | > 100 µM | > 100 µM | > 100 µM | > 100 | > 100 | GI50 (DLD-1 colon): 91 µM; GI50 (DMS 114 small cell lung): 50.7 µM; GI50 (HOP-18 NSCLC): > 100 µM; GI50 (KM20L2 colon): > 100 µM; GI50 (LXFL 529 NSCLC): 25.9 µM; GI50 (RXF-631 renal): > 100 µM |
| C=C(CCCCCCCCC)CC(=O)SCCNC(=O)CCNC(=O)C(O)C(C)(C)COP(=O)(O)OP(=O)(O)OCC1OC(n2cnc3c(N)ncnc32)C(O)C1OP(=O)(O)O (stereo unspecified) | > 100 µM | > 100 µM | > 100 µM | > 100 µM | > 100 | > 100 | TGI (DU-145 prostate): > 100 µM; TGI (MCF7 breast): > 100 µM; TGI (NCI/ADR-RES ovarian): > 100 µM; TGI (T-47D breast): > 100 µM |
| O=C(Nc1cccc([N+](=O)[O-])c1)C(=O)C(C(=O)c1ccccc1-c1ccccc1)C1OC(=O)c2ccccc21 (stereo unspecified) | 42.2 µM | 33.1 µM |  | 53.7 µM | 27.4 | 61.5 |  |
| CC1OC(OCC2OC(Oc3c(-c4ccc(O)cc4)oc4cc(O)cc(O)c4c3=O)C(OC3OC(C)C(O)C(O)C3O)C(O)C2O)C(O)C(O)C1O (stereo unspecified) | > 100 µM | > 77.4 µM | > 100 µM | > 100 µM | > 100 | > 100 |  |
| COC(=O)C1C(O)CC(c2ccccn2)N(Cc2ccccc2)C1c1ccccn1 (stereo unspecified) | > 100 µM | > 100 µM | > 100 µM | > 100 µM | > 100 | > 100 |  |
| CCOC(=O)C1(Br)C(c2ccccc2)NC(=O)NC1(C)Br (stereo unspecified) | > 100 µM | > 100 µM | > 100 µM | > 100 µM | > 100 | > 100 | GI50 (DU-145 prostate): 44.5 µM; TGI (DU-145 prostate): > 100 µM; GI50 (MCF7 breast): 28.1 µM; TGI (MCF7 breast): > 100 µM; GI50 (NCI/ADR-RES ovarian): 28.1 µM; TGI (NCI/ADR-RES ovarian): 89.8 µM; GI50 (T-47D breast): 47.3 µM; TGI (T-47D breast): > 100 µM |
| Cn1nc(-c2ccccc2)c(C(=O)/C=C/c2ccc(F)cc2)c(N2CCCCC2)c1=O | 16.6 µM | 17.1 µM | 20.6 µM | 19.2 µM | 20.7 | 53.6 |  |
| CCc1cccc(C(C)C)c1NC(=O)C(=O)CC(=O)c1c(C)n([O-])c2ccccc2[n+]1=O | > 100 µM | > 100 µM |  | > 100 µM | > 100 | > 100 |  |
| O=C(O)COc1ccc(O)c2c1C(=O)CCCC2=O | > 100 µM | > 100 µM |  | > 100 µM | > 100 | > 100 |  |
| OCCCOC(c1ccccc1)(c1ccccc1)c1ccccc1 | > 100 µM | > 100 µM |  | > 100 µM | > 100 | > 100 |  |
| CC(=O)NNc1nc(C)c(C(=O)NNC(=O)C(=O)Nc2c(C)cccc2C)s1 | > 100 µM |  | > 100 µM | > 100 µM | > 100 | > 100 |  |
